We go through one compound from US20220323471A1 (priority 2019, published 2022).

Each structure is given as a SMILES string. Read-outs that look alike come from different tables or passages of the source.

Test [1] concerns SARS-CoV-2-GFP. It is filed as cell-based.
In test [2] the test system is ZIKV-RVP. It is filed as cell-based, Zika virus. The settings on record: VERO, HT1080, CHME3 cells; MOI 0.5; 48 hours.
In test [3] the test system is EBV RVP. It is filed as cell-based, Ebola virus.
The subject of test [4] is ZIKV MR766. Kind of test: qRT-PCR quantification of ZIKV RNA in cells. It is filed as cell-based, Zika virus. The settings on record: VERO and HT1080 cells; MOI 1; 48 hours; increasing concentrations. How it is done: To corroborate these findings, quantitative real-time PCR (qRT-PCR) was used to quantify viral RNA using specific primers for the ZIKV genome (FIG. 3A). VERO and HT1080 cells were challenged with ZIKV at an MOI of 1 in the presence of DGP at the indicated concentrations. At 48 hours post-infection, ZIKV RNA was quantified by qRT-PCR, and normalized to Actin. […] Inhibition of viral RNA production correlated with the inhibition of viral infection (compare FIG. 3A with FIG. 3B).
To detect viral copies of ZIKV and Sendai Virus (SeV) by qRT-PCR, cells were seeded in 24-well plates, with or without DGP treatment, and infected with the virus at the indicated MOI for 48 h. After the incubation period, total RNA from HT1080, VERO, and CHME3 cells was isolated and purified using Trizol (Invitrogen). For detection of ZIKV viral load in brain and spleen, 3 mice were sacrificed at 6 days post-infection and total RNA was extracted from the brain and spleen. For cDNA synthesis, 1 ng of total RNA was reverse transcribed. The reaction mixture included 1 mM of deoxyribonucleotide phosphates (dNTPs), 2 nM of the specific reverse primer of ZIKV or SeV, 1× M-MULV buffer, 10 U M-MuLV RT (BioLabs), and 2 U of RNase Inhibitor. The reaction mixture was incubated for 1 hour at 42° C. followed by 20 min at 65° C. to inactivate the enzyme. […]
ZIKV RNA levels were measured using real-time PCR. […]

In test [5] the test system is DENV1-RVP. The class given is cell-based, dengue virus. As to conditions: VERO cells; DGP 1 μM; NH4Cl 20 mM.
The subject of test [6] is ZIKV. In words: ZIKV viral load in brain and spleen of challenged mice (qRT-PCR). It is filed as in vivo, mouse. The settings on record: 1 mg/kg; six days post-challenge. How it is done: The effect of DGP on viral replication in the brain and spleen was investigated in ZIKV-challenged mice (FIG. 13). To this end, viral loads were determined by qRT-PCR using specific primers against the ZIKV genome six days post-challenge.
To detect viral copies of ZIKV and Sendai Virus (SeV) by qRT-PCR, cells were seeded in 24-well plates, with or without DGP treatment, and infected with the virus at the indicated MOI for 48 h. After the incubation period, total RNA from HT1080, VERO, and CHME3 cells was isolated and purified using Trizol (Invitrogen). For detection of ZIKV viral load in brain and spleen, 3 mice were sacrificed at 6 days post-infection and total RNA was extracted from the brain and spleen. For cDNA synthesis, 1 ng of total RNA was reverse transcribed. The reaction mixture included 1 mM of deoxyribonucleotide phosphates (dNTPs), 2 nM of the specific reverse primer of ZIKV or SeV, 1× M-MULV buffer, 10 U M-MuLV RT (BioLabs), and 2 U of RNase Inhibitor. The reaction mixture was incubated for 1 hour at 42° C. followed by 20 min at 65° C. to inactivate the enzyme. For actin detection, Oligo-dT was used to reverse transcribe total RNA.

The subject of test [7] is ZIKV strain MR766. In words: ZIKV strain MR766 infection, 4G2 antibody flow cytometry. The settings on record: for IC50: Zika virus.

Turning to `COc1cc2c(OC3OC(C)C(O)C(O)C3O)c3c(c(-c4ccc5c(c4)OCO5)c2cc1OC)C(=O)OC3` (stereo not drawn) [DGP, 6-deoxyglucose-diphyllin], the “concentration sufficient to potently block the entry of SARS-CoV-2-GFP” value in test [1] was determined as 0.25 µM. Also, in test [2], the “concentration at which ZIKV-RVP infection was substantially inhibited” value lay in the range of 0.25 to 0.50 µM. Also, the “EBV RVP infection” value in test [3] was “almost undetectable”. Moreover, the “synthesis of viral RNA (normalized to Actin)” value in test [4] is “completely inhibited”. For the same compound, the “DENV1 RVP infection” value in test [5] is recorded as “almost undetectable”. For the same compound, in test [6], the “viral replication in the brain” value is “completely inhibited” and the “viral replication in the spleen” value is “low levels of viral replication were detected”. For the same compound, the “percentage of 4G2-positive cells” value in test [7] (CHME3 cells, MOI 1, DGP 0.1 and 1 μM, NH4Cl 20 mM, 48 hours) was “substantial decrease”. Also, the “potency of DGP relative to diphyllin” value in test [7] (HT1080 and CHME3 cells) was 3-5 fold. Moreover, the “concentration giving substantial inhibition of ZIKV infection” value in test [7] (VERO, HT1080, CHME3 cells, MOI 1, 48 hours) is 0.25 to 0.50 µM. For the same compound, the IC50 in test [7] (HT-1080, read-out: IC50, ZIKV infection) came out at 20 nM. Further, the IC50 in test [7] (read-out: IC50, ZIKV infection) worked out at 40 nM.
